One molecule from patent US20030186892A1, “Enhancement of endogenous gonadotropin production” (priority 2002, published 2003) can be followed below.

In one series the test system is testosterone. To be noted: 5 mg b.i.d. (Group B) compared with 10 mg q.d. (Group C), oral.
The conditions of series [1]: in vivo.
Protocol: A study was conducted to determine the bioavailability of leuprolide acetate when it was administered by the sublingual route. The study was conducted in fifteen healthy postmenopausal or surgically sterilized female volunteers. This study was conducted according to a single-dose, fasting, four-period, open-label, randomized design. […] 4.5 mg or a 1 mg subcutaneous dose. […] Five-ml plasma samples were collected by venipuncture prior to the study and at suitable time intervals after dosing. Plasma leuprolide acetate concentrations data was tabulated and the descriptive statistics were computed.

SMILES strings stand for the structures.

Protocol for testosterone: Twenty subjects were assigned to each dosing group. Dosing groups were dosed sequentially, beginning with 5 mg q.d. group (Group A). Dosing for the 5 mg b.i.d. group (Group B) commenced 2 weeks after the initiation of Group A and the dosing for the 10 mg q.d. group (Group C) began 2 weeks after initiation of the 5 mg b.i.d. group. […] For all measurements, the final value obtained before the start of the study drug administration was used as the baseline value for that variable.

For `CCNC(=O)[C@@H]1CCCN1C(=O)[C@H](CCCNC(=N)N)NC(=O)[C@H](CC(C)C)NC(=O)[C@@H](CC(C)C)NC(=O)[C@H](Cc1ccc(O)cc1)NC(=O)[C@H](CO)NC(=O)[C@H](Cc1c[nH]c2ccccc12)NC(=O)[C@H](Cc1c[nH]cn1)NC(=O)[C@@H]1CCC(=O)N1` [leuprolide acetate], the “Elevation of plasma testosterone, comparison of regimens” value with testosterone is reported as “more significant elevation of plasma testosterone”. The “Administered sublingual dose absorbed compared to subcutaneous reference” value in series [1] is on record as “Approximately 1%”.
